# Test results taken from patent US20170190671A1, “BIS(ARYL)CATECHOL DERIVATIVES AS HERBICIDES” (E I DU PONT DE NEMOURS AND COMPANY, priority 2014, published 2017).
# Experiments:
# Type in all cases: in vivo
# [1] = tested on: ragweed (common ragweed, Ambrosia elatior); assay: Test C preemergence; details: Ambrosia artemisiifolia, pre-emergence, 336 h, scale 0 to 100, read-out: Plant response rating, Ragweed; for pest or weed control at 31 g/ha: 31 g ai/ha; for pest or weed control at 31 g/ha / pest or weed control at 62 g/ha / pest or weed control at 125 g/ha: preemergence; for pest or weed control at 62 g/ha: 62 g ai/ha; for pest or weed control at 125 g/ha: 125 g ai/ha; for pest or weed control at 16 g/ha: Preemergence, 16 g ai/ha
# Outline: (§1)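 Seeded loam-sand soil (preemergence) or young potted plants of 2-18 cm (postemergence) received test chemical formulated with surfactant in a non-phytotoxic solvent. Pots were kept in the greenhouse for 13-15 days before a visual 0-100 control rating relative to controls.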
# [2] = tested on: galium (catchweed bedstraw, Galium aparine); assay: Test C preemergence; details: Galium, pre-emergence, 336 h, scale 0 to 100, read-out: Plant response rating, Galium; for pest or weed control at 31 g/ha: 31 g ai/ha; for pest or weed control at 31 g/ha / pest or weed control at 62 g/ha / pest or weed control at 125 g/ha: preemergence; for pest or weed control at 62 g/ha: 62 g ai/ha; for pest or weed control at 125 g/ha: 125 g ai/ha; for pest or weed control at 16 g/ha: Preemergence, 16 g ai/ha
# Outline: as §1
# [3] = tested on: blackgrass (Alopecurus myosuroides); assay: Test A postemergence; details: Alopecurus myosuroides, post-emergence, 240 h, 0 to 100 scale, read-out: Plant response rating, Blackgrass; for pest or weed control at 31 g/ha: 31 g ai/ha; for pest or weed control at 125 g/ha: 125 g ai/ha
# Outline: (§2)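 Greenhouse pot test, loam/sand soil. Formulation: non-phytotoxic solvent mix plus surfactant. Pre: directed spray onto soil after sowing. Post: plants at 1–2 leaf, 2–10 cm. Rated visually vs untreated controls at ~10 d, 0 (no effect) to 100 (complete control).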
# [4] = tested on: ragweed (common ragweed, Ambrosia elatior); assay: Test A postemergence; details: Ambrosia artemisiifolia, post-emergence, 240 h, 0 to 100 scale, read-out: Plant response rating, Ragweed; for pest or weed control at 31 g/ha: 31 g ai/ha; for pest or weed control at 125 g/ha: 125 g ai/ha
# Outline: as §2
# [5] = tested on: barnyardgrass (Echinochloa crus-galli); assay: Test A postemergence; details: Echinochloa crus-galli, post-emergence, 240 h, 0 to 100 scale, read-out: Plant response rating, Barnyardgrass; for pest or weed control at 31 g/ha: 31 g ai/ha; for pest or weed control at 125 g/ha: 125 g ai/ha
# Outline: as §2
# kochia (Kochia scoparia) [6] = assay: Test A postemergence; details: Bassia scoparia, post-emergence, 240 h, 0 to 100 scale, read-out: Plant response rating, Kochia; for pest or weed control at 31 g/ha: 31 g ai/ha; for pest or weed control at 125 g/ha: 125 g ai/ha
# Outline: as §2
# [7] = tested on: Italian ryegrass (Lolium multiflorum); assay: Test A postemergence; details: Lolium multiflorum, post-emergence, 240 h, 0 to 100 scale, read-out: Plant response rating, Ryegrass, Italian; for pest or weed control at 31 g/ha: 31 g ai/ha; for pest or weed control at 125 g/ha: 125 g ai/ha
# Outline: as §2
# [8] = tested on: pigweed (Amaranthus retroflexus); assay: Test A postemergence; details: Amaranthus retroflexus, post-emergence, 240 h, 0 to 100 scale, read-out: Plant response rating, Pigweed; for pest or weed control at 31 g/ha: 31 g ai/ha; for pest or weed control at 125 g/ha: 125 g ai/ha
# Outline: as §2
# [9] = tested on: giant foxtail (Setaria faberii); assay: Test A postemergence; details: Setaria faberi, post-emergence, 240 h, 0 to 100 scale, read-out: Plant response rating, Foxtail, Giant; for pest or weed control at 31 g/ha: 31 g ai/ha; for pest or weed control at 125 g/ha: 125 g ai/ha
# Outline: as §2
# corn (Zea mays) = assay: Test A postemergence; details: Zea mays, post-emergence, 240 h, 0 to 100 scale; for Corn plant response rating (crop injury, 0 = no effect, 100 = complete kill) at 31 g/ha: 31 g ai/ha; for Corn plant response rating (crop injury, 0 = no effect, 100 = complete kill) at 125 g/ha: 125 g ai/ha
# Outline: as §2
# [10] = tested on: galium (catchweed bedstraw, Galium aparine); assay: Test A postemergence; details: Galium, post-emergence, 240 h, 0 to 100 scale, read-out: Plant response rating, Galium; for pest or weed control at 31 g/ha: 31 g ai/ha; for pest or weed control at 125 g/ha: 125 g ai/ha
# Outline: as §2
# [11] = tested on: wheat (Triticum aestivum); assay: Test A postemergence; details: Triticum aestivum, post-emergence, 240 h, 0 to 100 scale, read-out: Plant response rating, Wheat; for plant injury at 31 g/ha: 31 g ai/ha; for plant injury at 125 g/ha: 125 g ai/ha
# Outline: as §2
# [12] = tested on: ragweed (common ragweed, Ambrosia elatior); assay: Test A preemergence; details: Ambrosia artemisiifolia, pre-emergence, 240 h, 0 to 100 scale (0 no effect, 100 complete control), read-out: Ragweed plant response rating; for pest or weed control at 31 g/ha: 31 g ai/ha; for pest or weed control at 125 g/ha: 125 g ai/ha
# Outline: as §2
# [13] = tested on: barnyardgrass (Echinochloa crus-galli); assay: Test A preemergence; details: Echinochloa crus-galli, pre-emergence, 240 h; for pest or weed control at 31 g/ha: 31 g ai/ha; for pest or weed control at 125 g/ha: 125 g ai/ha
# Outline: as §2
# kochia (Kochia scoparia) [14] = assay: Test A preemergence; details: Bassia scoparia, pre-emergence, 240 h, 0 to 100 scale (0 no effect, 100 complete control), read-out: Kochia plant response rating; for pest or weed control at 31 g/ha: 31 g ai/ha; for pest or weed control at 125 g/ha: 125 g ai/ha
# Outline: as §2
# [15] = tested on: Italian ryegrass (Lolium multiflorum); assay: Test A preemergence; details: Lolium multiflorum, pre-emergence, 240 h, 0 to 100 scale (0 no effect, 100 complete control), read-out: Ryegrass, Italian plant response rating; for pest or weed control at 31 g/ha: 31 g ai/ha; for pest or weed control at 125 g/ha: 125 g ai/ha
# Outline: as §2
# [16] = tested on: pigweed (Amaranthus retroflexus); assay: Test A preemergence; details: Amaranthus retroflexus, pre-emergence, 240 h, 0 to 100 scale (0 no effect, 100 complete control), read-out: Pigweed plant response rating; for pest or weed control at 31 g/ha: 31 g ai/ha; for pest or weed control at 125 g/ha: 125 g ai/ha
# Outline: as §2
# [17] = tested on: giant foxtail (Setaria faberii); assay: Test A preemergence; details: Setaria faberi, pre-emergence, 240 h, 0 to 100 scale (0 no effect, 100 complete control), read-out: Foxtail, Giant plant response rating; for pest or weed control at 31 g/ha: 31 g ai/ha; for pest or weed control at 125 g/ha: 125 g ai/ha
# Outline: as §2
# [18] = tested on: sedge, umbrella (small-flower umbrella sedge, Cyperus difformis); assay: Test B flooded paddy; details: Cyperus difformis, 336 h; 250 g ai/ha, Flood, 13 to 15 days, scale 0 (no effect) to 100 (complete control); read-out: Plant response rating, Sedge, Umbrella
# Outline: (§3)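 In-water treatment: compound dosed into 3 cm flood over soil, water level unchanged throughout. Controls run alongside; visual assessment at day 13–15.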
# [19] = tested on: barnyardgrass (Echinochloa crus-galli); assay: Test B flooded paddy; details: Echinochloa crus-galli, 336 h; 250 g ai/ha, Flood, 13 to 15 days, scale 0 (no effect) to 100 (complete control); read-out: Plant response rating, Barnyardgrass
# Outline: as §3
# rice (Oryza sativa) = assay: Test B flooded paddy; details: Oryza sativa, 336 h; 250 g ai/ha, Flood, 13 to 15 days, scale 0 (no effect) to 100 (complete control); read-out: Plant response rating, Rice
# Outline: as §3
# [20] = tested on: ducksalad (Heteranthera limosa); assay: Test B flooded paddy; details: Heteranthera limosa, 336 h; 250 g ai/ha, Flood, 13 to 15 days, scale 0 (no effect) to 100 (complete control); read-out: Plant response rating, Ducksalad
# Outline: as §3
# [21] = 0 to 100 scale (0 no effect, 100 complete control), read-out: Barnyardgrass plant response rating
smiles,measurement,setting,value
"Fc1ccc(F)c(Oc2ncc(Cl)cn2)c1Oc1ncc(Cl)cn1 [Compound 34, 2,2′-[(3,6-difluoro-1,2-phenylene)bis(oxy)]bis[5-chloropyrimidine]]",pest or weed control at 31 g/ha,[1],0%
same,pest or weed control at 62 g/ha,[1],25%
same,pest or weed control at 125 g/ha,[1],40%
same,pest or weed control at 16 g/ha,[1],0%
same,pest or weed control at 31 g/ha,[2],95%
same,pest or weed control at 62 g/ha,[2],95%
same,pest or weed control at 125 g/ha,[2],98%
same,pest or weed control at 16 g/ha,[2],90%
same,pest or weed control at 31 g/ha,[3],60%
same,pest or weed control at 125 g/ha,[3],70%
same,pest or weed control at 31 g/ha,[4],30%
same,pest or weed control at 125 g/ha,[4],50%
same,pest or weed control at 31 g/ha,[5],0%
same,pest or weed control at 125 g/ha,[5],50%
same,pest or weed control at 31 g/ha,kochia (Kochia scoparia) [6],50%
same,pest or weed control at 125 g/ha,kochia (Kochia scoparia) [6],70%
same,pest or weed control at 31 g/ha,[7],10%
same,pest or weed control at 125 g/ha,[7],50%
same,pest or weed control at 31 g/ha,[8],70%
same,pest or weed control at 125 g/ha,[8],80%
same,pest or weed control at 31 g/ha,[9],30%
same,pest or weed control at 125 g/ha,[9],70%
same,"Corn plant response rating (crop injury, 0 = no effect, 100 = complete kill) at 31 g/ha",corn (Zea mays),0%
same,"Corn plant response rating (crop injury, 0 = no effect, 100 = complete kill) at 125 g/ha",corn (Zea mays),10%
same,pest or weed control at 31 g/ha,[10],80%
same,pest or weed control at 125 g/ha,[10],90%
same,plant injury at 31 g/ha,[11],0%
same,plant injury at 125 g/ha,[11],30%
same,pest or weed control at 31 g/ha,[12],0%
same,pest or weed control at 125 g/ha,[12],10%
same,pest or weed control at 31 g/ha,[13]; [21],10%
same,pest or weed control at 125 g/ha,"[13]; 0 to 100 scale, read-out: Plant response rating, Barnyardgrass",80%
same,pest or weed control at 31 g/ha,kochia (Kochia scoparia) [14],80%
same,pest or weed control at 125 g/ha,kochia (Kochia scoparia) [14],90%
same,pest or weed control at 31 g/ha,[15],0%
same,pest or weed control at 125 g/ha,[15],50%
same,pest or weed control at 31 g/ha,[16],100%
same,pest or weed control at 125 g/ha,[16],100%
same,pest or weed control at 31 g/ha,[17],70%
same,pest or weed control at 125 g/ha,[17],90%
same,pest or weed control at 250 g/ha,[18],30%
same,pest or weed control at 250 g/ha,[19],0%
same,plant injury at 250 g/ha,rice (Oryza sativa),0%
same,pest or weed control at 250 g/ha,[20],30%
"N#Cc1cccc(Oc2ncc(Cl)cn2)c1Oc1ncc(C(F)(F)F)cn1 [Compound 38, 3-[(5-chloro-2-pyrimidinyl)oxy]-2-[[5-(trifluoromethyl)-2-pyrimidinyl]oxy]-benzonitrile]",pest or weed control at 31 g/ha,[1],25%
same,pest or weed control at 62 g/ha,[1],75%
same,pest or weed control at 125 g/ha,[1],90%
same,pest or weed control at 16 g/ha,[1],0%
same,pest or weed control at 31 g/ha,[2],90%
same,pest or weed control at 62 g/ha,[2],100%
same,pest or weed control at 125 g/ha,[2],100%
same,pest or weed control at 16 g/ha,[2],80%
same,pest or weed control at 31 g/ha,[3],40%
same,pest or weed control at 125 g/ha,[3],90%
same,pest or weed control at 31 g/ha,[4],40%
same,pest or weed control at 125 g/ha,[4],70%
same,pest or weed control at 31 g/ha,[5],90%
same,pest or weed control at 125 g/ha,[5],90%
same,pest or weed control at 31 g/ha,kochia (Kochia scoparia) [6],100%
same,pest or weed control at 125 g/ha,kochia (Kochia scoparia) [6],100%
same,pest or weed control at 31 g/ha,[7],50%
same,pest or weed control at 125 g/ha,[7],90%
same,pest or weed control at 31 g/ha,[8],100%
same,pest or weed control at 125 g/ha,[8],100%
same,pest or weed control at 31 g/ha,[9],100%
same,pest or weed control at 125 g/ha,[9],100%
same,"Corn plant response rating (crop injury, 0 = no effect, 100 = complete kill) at 31 g/ha",corn (Zea mays),40%
same,"Corn plant response rating (crop injury, 0 = no effect, 100 = complete kill) at 125 g/ha",corn (Zea mays),90%
same,pest or weed control at 31 g/ha,[10],80%
same,pest or weed control at 125 g/ha,[10],100%
same,plant injury at 31 g/ha,[11],20%
same,plant injury at 125 g/ha,[11],90%
same,pest or weed control at 31 g/ha,[12],30%
same,pest or weed control at 125 g/ha,[12],90%
same,pest or weed control at 31 g/ha,[13]; [21],80%
same,pest or weed control at 125 g/ha,[13]; [21],100%
same,pest or weed control at 31 g/ha,kochia (Kochia scoparia) [14],90%
same,pest or weed control at 125 g/ha,kochia (Kochia scoparia) [14],100%
same,pest or weed control at 31 g/ha,[15],10%
same,pest or weed control at 125 g/ha,[15],90%
same,pest or weed control at 31 g/ha,[16],100%
same,pest or weed control at 125 g/ha,[16],100%
same,pest or weed control at 31 g/ha,[17],100%
same,pest or weed control at 125 g/ha,[17],100%
same,pest or weed control at 250 g/ha,[18],100%
same,pest or weed control at 250 g/ha,[19],85%
same,plant injury at 250 g/ha,rice (Oryza sativa),45%
same,pest or weed control at 250 g/ha,[20],100%
